“And” between values parts separate entries of the source, which are not always exact repeats. Identical values can stand only once.
Test system: SYO-1 complex spheroid growth, percent test/control
Test: Anticancer human tumor SYO-1 cell line growth inhibition [Asc];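 also: compound exposure lasted 7 days after spheroids grew 3 days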;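 as to viability, T/C: 100% = DMSO vehicle control viability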
Conditions: for viability, T/C: stronger effect = lower value
Procedure: Multicellular complex tumor spheroid response to apoptosis pathway targeting inhibitors Alrizomadlin, Pelcitoclax, and Dasminapant in combination with a variety of drugs and investigational agents in selected tumor cell lines
The MDM2 inhibitor alrizomadlin, the Bcl-2/Bcl-xL inhibitor pelcitoclax, and the IAPs inhibitor dasminapant were evaluated both individually and in combination with standard of care and investigational anticancer small molecules within a complex spheroid model of solid tumors. . Complex spheroids include a stromal component modeled by human endothelial cells (HUVEC) and fibroblasts modeled by human mesenchymal stem cells (MSCs). The concentration ranges selected for each drug and investigational agent were based upon clinically achievable concentrations if the clinical Cmax of the agent was known.
Compounds. The drugs and investigational agents: alrizomadlin (APG-115; NSC831270), pelcitoclax (APG-1252; NSC835773), dasminapant (APG-1387;NSC834197), TAK-243 (NSC785004), copanlisib (NSC809693), olaparib (NSC753686), talazoparib (NSC767125), cobimetinib (NSC 768068), eltanexor (KPT-8602, NSC 794443), abemaciclib (NSC 768073), sotorasib (NSC818433), adagrasib (NSC 831453), MRTX-1133 (NSC 836407), Iadademestat (ORY1001, NSC 806812), and RMC-4630 (NSC839698), were obtained from the NCI Developmental Therapeutics Program Chemical Repository. The FDA-approved anticancer drug set is available from the Developmental Therapeutics Program at https://dtp.cancer.gov/organization/dscb/obtaining/available plates.htm. […] The stock solutions were prepared in dimethyl sulfoxide (DMSO, Sigma-Aldrich, St. Louis, MO, cat. D2650) at 800-fold the tested concentration and stored at -70 degrees C prior to their use. All drugs and investigational agents were tested over a range starting from a high concentration at or near the clinical Cmax and decreasing in half-log increments. If the clinical Cmax for an agent had not been determined, the highest concentration tested was 10 microM.
The patient-derived cancer (PDC) cell lines include five colon adenocarcinomas: 186277-243-T-J2-PDC, 616215-338-R-J1-PDC, 439559-082-T-J2-PDC, 463943-066-T-J2-PDC, and 519858-162-T-J1-PDC; three pancreatic carcinomas: 323965-272-R-J2-PDC, 521955-158-R6-J3-PDC, and 521955-158-R2-J5-PDC; two uterine sarcomas: 327498-152-R-J2-PDC and 993429-296-R-J1-PDC; two rhabdomyosarcomas: 755483-174-R-J1-PDC and 772245-204-R-J1-PDC; two soft tissue sarcomas: 126254-015-R-J1-PDC and 494315-158-R-J1-PDC; two malignant fibrous histiocytomas: 317291-083-R-J1-PDC and 596521-263-R-J1-PDC; two breast carcinomas: 171881-019-R-J1-PDC and 885512-296-R-J2-PDC; and one ovarian carcinoma: 6556581-035-R-J-PDC were obtained from the NCI PDMR, (https://pdmr.cancer.gov). The established cell lines HSSY-2 synovial sarcoma (RRID:CVCL 8719), SYO-1 synovial sarcoma (RRID:CVCL_7146), MPNST malignant peripheral neural sheath tumor were obtained from the Sloan Kettering Institute. The following established cell lines were purchased from the American Type Culture Collection (ATCC, Manassas, VA), Sor the received from the NCI repository:, PANC-1 pancreatic carcinoma (CRL-1469, RRID:CVCL_0480), OVCAR-5 ovarian carcinoma (RRID:CVCL_1628), OVCAR-8 ovarian carcinoma (RRID:CVCL_1629), , MCF-7 breast carcinoma (CRL-12584, RRID:CVCL_0031), MDA-MB-231 breast carcinoma (CRL-12532, RRID:CVCL_0062), NCI-H1876 small cell lung carcinoma (CRL-5902, RRID:CVCL_1503), NCI-H510A small cell lung carcinoma (HTB-184, RRID:CVCL_1565), NCI-H1417 (CRL-5869, RRID:CVCL_1469), and NCI-H196 small cell lung carcinoma (CRL-5823, RRID:CVCL_1509). Dr. Peter Houghton (Greehey Children's Cancer Research Institute, University of Texas Health Science Center, San Antonio, TX) provided Rh-18 rhabdomyosarcoma (RRID:CVCL_1659). Pooled donor human umbilical vein endothelial cells (HUVEC, Lonza, cat. CC-2519) and human mesenchymal stem cells (hMSC, Lonza, cat. PT-2501) were purchased from Lonza (Walkersville, MD).
Cell Culture. […]

[1] = compound alone, run of 11/07/2022

SMILES | IC50 (curve of compound) | viability, T/C (compound 0.0316 µM) | viability, T/C (compound 0.1 µM) | viability, T/C (compound 0.316 µM) | viability, T/C (compound 1 µM) | viability, T/C (compound 3.16 µM) | viability, T/C (compound 10 µM) | viability, T/C (compound 0.00316 µM) | viability, T/C (compound 0.01 µM) | further results
C=C(F)C(=O)N1CCN(c2nc(OCC3CCCN3C)nc3c2CCN(c2cccc4cccc(Cl)c24)C3)CC1CC#N (centres undefined) | 5540 nM and 5310 nM and 5370 nM | 107% and 98.8% and 99.1% | 102% (2×) and 96.3% | 97.5% and 101% and 100% | 95.2% and 101% and 113% | 97.3% and 90.3% and 92.2% | 0.28% and 0.79% and 0.39% | – | – | –
CCN1C(C(=O)NC23CCC(C(=O)O)(CC2)CC3)C(c2cccc(Cl)c2F)C2(C(=O)Nc3cc(Cl)ccc32)C12CCCCC2 (centres undefined) | 142 nM and 178 nM | – | – | – | – | – | – | – | – | viability, T/C (compound 0.00949 µM): 103% [middle of 9 runs]; viability, T/C (compound 0.03 µM): 99.3% [middle of 9 runs]; viability, T/C (compound 0.3 µM): 25.9% [middle of 9 runs]; viability, T/C (compound 0.949 µM): 3.45% [middle of 9 runs]; viability, T/C (compound 3 µM): 1.23% [middle of 9 runs]; IC50 [1]: 189 nM [middle of 7 runs]
CNC(C)C(=O)NC1CN(S(=O)(=O)c2cccc(S(=O)(=O)N3CCC4CCC(C(=O)NC(c5ccccc5)c5ccccc5)N4C(=O)C(NC(=O)C(C)NC)C3)c2)CCC2CCC(C(=O)NC(c3ccccc3)c3ccccc3)N2C1=O (centres undefined) | > 1000 nM | 98.2% [middle of 14 runs] | – | 98.7% [middle of 14 runs] | 96.6% [middle of 14 runs] | – | – | 109% and 90.1% and 99.2% | 102% [middle of 14 runs] | IC50 (compound alone, run of 10/24/2022): > 1000 nM; IC50 (compound alone, run of 11/15/2022): > 1000 nM
Cc1c(S(C)(=O)=O)c(-c2cc(F)cc(N3CCN(c4ccc(NS(=O)(=O)c5ccc(NC(CCN6CCC(C(=O)OCCCP(=O)(O)O)CC6)CSc6ccccc6)c(S(=O)(=O)C(F)(F)F)c5)cc4)CC3)c2)c(-c2ccc(Cl)cc2)n1C(C)C (centres undefined) | – | 102% [middle of 7 runs] | 100% [middle of 7 runs] | 96.5% [middle of 7 runs] | 90.6% [middle of 7 runs] | 88.6% [middle of 7 runs] | 79% [middle of 7 runs] | – | – | IC50 [1]: > 10000 nM
Cc1nc(N2CCC3(CC2)COC(C)C3N)c(CO)nc1Sc1ccnc(N)c1Cl (centres undefined) | > 3000 nM | – | – | – | – | – | – | – | – | viability, T/C (compound 0.00949 µM): 107% and 98.7% and 112%; viability, T/C (compound 0.03 µM): 112% and 94% and 111%; viability, T/C (compound 0.0949 µM): 107% and 116% and 103%; viability, T/C (compound 0.3 µM): 108% and 109% (2×); viability, T/C (compound 0.949 µM): 112% and 114% and 107%; viability, T/C (compound 3 µM): 103% and 100% and 109%
NC1CCC(NC2CC2c2ccccc2)CC1 (centres undefined) | > 100 nM | 91.9% and 96.6% and 88.2% | 90.8% and 84.5% and 86.5% | – | – | – | – | 90.9% and 95.4% and 93.3% | 94.7% and 89.3% and 92.9% | viability, T/C (compound 0.000316 µM): 108% and 106% and 112%; viability, T/C (compound 0.001 µM): 102% and 97% and 97.1%

The next lines start with results.

IC50 (curve of compound) | SMILES | viability, T/C (compound 0.0316 µM) | viability, T/C (compound 0.1 µM) | viability, T/C (compound 0.316 µM) | viability, T/C (compound 1 µM) | viability, T/C (compound 3.16 µM) | viability, T/C (compound 10 µM) | viability, T/C (compound 0.00316 µM) | viability, T/C (compound 0.01 µM) | further results
> 10000 nM | C#Cc1c(F)ccc2cc(O)cc(-c3ncc4c(N5CC6CCC(C5)N6)nc(OCC56CCCN5CC(F)C6)nc4c3F)c12 (centres undefined) | 111% and 98.5% and 108% | 95.5% and 92.2% and 96.9% | 108% and 95.5% and 110% | 98.9% and 101% and 109% | 111% and 117% and 105% | 105% and 97.4% and 103% | – | – | –
> 10000 nM | C=CC(=O)N1CCN(c2nc(=O)n(-c3c(C)ccnc3C(C)C)c3nc(-c4c(O)cccc4F)c(F)cc23)C(C)C1 (centres undefined) | 100% and 96.9% and 116% | 108% and 98.8% and 106% | 104% (2×) and 99.7% | 103% (2×) and 104% | 98.7% and 95.2% and 101% | 94.3% and 87.2% and 89.7% | – | – | –
> 1000 nM | CCN1CCN(Cc2ccc(Nc3ncc(F)c(-c4cc(F)c5nc(C)n(C(C)C)c5c4)n3)nc2)CC1 | 107% and 106% and 109% | 114% and 118% and 115% | 115% and 128% and 112% | 106% and 111% and 112% | – | – | 103% (2×) and 101% | 99.9% and 103% and 110% | –
741 nM and 900 nM and > 1000 nM | COc1c(OCCCN2CCOCC2)ccc2c3n(c(=NC(=O)c4cnc(N)nc4)nc12)CCN3 | 95.3% and 108% and 113% | 95.4% and 101% and 107% | 76.1% and 87.7% and 90.5% | 40.2% and 46.1% and 63.6% | – | – | 111% and 102% and 109% | 105% and 112% and 114% | –
34.8 nM and > 100 nM and 43.5 nM | Cn1ncnc1[C@H]1c2n[nH]c(=O)c3cc(F)cc(c23)N[C@@H]1c1ccc(F)cc1 | 53.5% and 74.9% and 64.4% | 15% and 91.9% and 12.5% | – | – | – | – | 104% and 97.3% and 107% | 87.3% and 95.5% and 98.1% | viability, T/C (compound 0.000316 µM): 105% and 109% and 104%; viability, T/C (compound 0.001 µM): 103% and 106% and 95.2%
180 nM and 183 nM and 257 nM | NC(=O)C(=Cn1cnc(-c2cc(C(F)(F)F)cc(C(F)(F)F)c2)n1)c1cncnc1 | – | – | – | – | – | – | – | – | viability, T/C (compound 0.000949 µM): 97.3% and 93.8% and 106%; viability, T/C (compound 0.003 µM): 98.8% and 101% and 104%; viability, T/C (compound 0.00949 µM): 97.4% and 98% and 95.6%; viability, T/C (compound 0.03 µM): 96.9% and 95.8% and 107%; viability, T/C (compound 0.0949 µM): 95.9% and 94.2% and 99.5%; viability, T/C (compound 0.3 µM): 13.3% and 16.5% and 42.3%
2500 nM and 3100 nM and 4810 nM | O=C(c1cc(Cc2n[nH]c(=O)c3ccccc23)ccc1F)N1CCN(C(=O)C2CC2)CC1 | 96.5% and 98.2% and 111% | 91.4% and 91.9% and 103% | 102% and 99.6% and 101% | 96.7% and 105% and 95.2% | 38% and 49.1% and 73.5% | 6.76% and 6.7% and 10.1% | – | – | –
> 1000 nM | O=C(c1ccc(F)c(F)c1Nc1ccc(I)cc1F)N1CC(O)([C@@H]2CCCCN2)C1 | 103% (2×) and 102% | 108% (2×) and 102% | 111% and 99.2% and 96.4% | 104% and 106% and 101% | – | – | 105% and 97.6% and 106% | 104% and 97% and 105% | –

From PubChem BioAssay AID1963432 (Molecular Pharmacology Branch, DTP, NCI, 2024)
